{"source": "patent US5000936A", "about": "“Methods for locally-treating allergic disorders with pharmaceutical preparations containing N-acetyl-aspartyl glutamic acid or its salts” (THEA (Therapeutique et Applications) S.A., priority 1983, dated 1991)", "key": {"[1]": {"test": "metabolism after oral and parenteral administration (statement)", "format": "in vivo", "settings": "oral and parenteral routes of administration"}, "allergic conjunctivitis": {"tested_on": "allergic conjunctivitis", "test": "trial on allergic conjunctivitis in the rabbit", "format": "in vivo", "settings": "n = 12 eyes", "text": "The experimental protocol has been established according to works by OKADA et al. (OKADA-SHIMADA, Invest. Ophthalmol. Vis. Sc. 1980, 19 2, 176-181).\nThe model of allergic conjunctivitis used consists in effecting a conjunctival immunization in rabbits by local injection of rabbit antibodies to bovine gammaglobulins. The conjunctivitis is then triggered by the inflammation of allergic origin thus provoked are observed as an increase in the weight of the conjunctiva, and as enhancement of the conjunctival capillary permeability to iodine-125 labeled rabbit serum albumin injected intravenously before the injection of the antigen.\nTwo hours after the injection of bovine gammaglobulins, the rabbits are sacrificed, and then the eyes are removed and the conjunctiva dissected out, weighed and submitted to radioactive counting.\nThree parameters are recorded:\nthe weight of the conjunctiva,\nthe blood conjunctiva permeability index, evaluated as the ratio of the radioactivity of 1 mg of conjunctiva to that of 1 ml of blood,\nthe quantity of labeled serum albumin recovered in the conjunctiva.\nTo evaluate the protective effect of the preparation under investigation, several batches of six rabbits are formed, which receive 6 instillations of 2 eye-drops in each eye daily for 3.5 days before the injection of labeled serum albumin.\nOne batch of six normal rabbits, not tested and not subjected to provacation of the allergy, is also formed (\"blank\" batch), as well as a batch of six control rabbits receiving instillations of physiological serum before the triggering of the conjunctivitis (\"conjunctivitis controls\")."}, "[2]": {"tested_on": "mast cells of the nasal mucosa", "test": "mast cell degranulation of nasal mucosa of guinea pig by instillation of 48/80", "format": "in vivo", "experimental": "The test is based on the determination by microscopy of the number of granulated mast cells per unit area in the nasal mucosa of the guinea pig, and on the study of the administration of a histamine releasing substance --48/80--on this number of mast cells. Guinea pigs receive in each nostril, twice daily during 3 days. 0.1 ml of the product under investigation, 15 minutes before the nasal instillation of 0.1 ml of 48/80 in solution at 2 % concentration; the animals are sacrificed 1 hour after the last instillation.\nAfter sacrifice, the nasal mucosa is removed, then fixed and stained with toluidine blue to allow selective staining of the granulated mast cells. For each animal, the mast cells contained in 100 microscopic fields are counted by microscopy."}, "[3]": {"tested_on": "chronic allergic conjunctivitis", "test": "double blind clinical study in chronic allergic conjunctivitis (Example IX)", "format": "in vivo, patients", "experimental": "The trial was performed in double blind. The objective was to determine the effects of the composition according to Example I.2.: an ophthalmic solution at 4 % concentration, on the ocular symptoms and inflammatory conjunctival signs of patients suffering from chronic allergic conjunctivitis, compared with the sodium cromoglycate in ophthalmic solution at 2 % concentration used in therapy. The results of this comparative study concern 33 patients, of both sexes, who were distributed randomly into two groups: received the composition according to Example I.2. during 2 weeks at the rate of 1 drop in each eye to be treated, 3 to 5 times daily. These patients then received sodium cromoglycate in eye-drops at 2 % concentration (commercial eye-drops) during two supplementary weeks and at the same dosage, 16 patients received the same eye-drops in the reverse order and for the same lengths of time. The random assortment of the patients ensured good homogeneity in the distribution between the two treatment groups, not only in respect of the clinical characteristics, but also in respect of the duration of administration of the eye-drops under trial, and the use of concomitant treatments."}, "[4]": {"tested_on": "sub-acute and chronic atopic conjunctivitis", "test": "clinical study in sub-acute and chronic atopic conjunctivitis (Example XII)", "format": "in vivo", "settings": "27 patients; at least one year on 2 % Cromoglycate, then two months 4 % NAAGA eye-drops four times daily", "experimental": "Twenty seven patients suffering from sub-acute and chronic atopic conjunctivitis who were treated for at least one year on 2 % Cromoglycate eye-drops, were switched from Cromoglycate treatment to 4 % NAAGA eye-drops four times daily. Before and after two months treatment period with composition according to example I.2., the patients were checked objectively in order to score the severity of conjunctival livid hyperemia and the amount of exudate. Subjectively the patients were asked to assess the symptoms of itching, burning and photophobia. Objective and subjective assessments were scored by means of visual analog scales."}, "[5]": {"tested_on": "perennial allergic rhinitis", "test": "double-blind cross-over clinical study in perennial allergic rhinitis (Example XIII)", "format": "in vivo, patients", "settings": "2 sprays per nostril, 5 times per day, 2 weeks", "experimental": "The aim of the present study was to determine the efficacy and tolerance of the composition according to example II.2., in the treatment of allergic rhinitis. For this purpose, a double-blind trial was undertaken versus a reference drug: disodium Cromoglycate in a 2 % nasal solution. The study involved 34 patients, suffering from perennial allergic rhinitis. Each patient was included in a cross-over treatment protocol, according to which the two drugs compared were administered successively during 2 treatment periods of 2 weeks each, at the dose of 2 sprays per nostril, 5 times per day."}, "ciliary movement": {"tested_on": "ciliary movement", "test": "acute tolerance on ciliary movement, overall verdict", "format": "cell-based, guinea pigs or rabbits", "settings": "contact times which exceed 20 minutes", "text": "The technique used has been described under the name of microphotooscillography (L. G. CHEVANCE, J. F. LENNON: Etude des rythmes du battement ciliare (Study of rhythms of ciliary beating) Acta Otolaryng., 1970-70, 16-28)). In this study, guinea pigs or rabbits were used which were free of all clinical sign of infection of the airways. The animals are sacrificed, and then the nasal septum or trachea is dissected out. These tissues are placed in PBS survival medium and the superficial epithelium is removed by scraping, over an area of about 1 mm^2. This sample, which contains numerous ciliated cells in movement, is placed in an observation chamber under a special microscope equipped with a microphotoelectric system permitting the recording of ciliary beats in transillumination.\nThe measurement consists in recording the fluctuations in the light caused by the image, enlarged 500 times, of a cilium moving in front of the aperture of a diaphragm of suitable dimensions. After amplification, the fluctuations in light are recorded graphically.\nImpairments of ciliary movement are translated as a decrease in the frequency of the ciliary beats. […]"}}, "note": "Structures can show the parent of a compound that is named as a salt. Where a SMILES comes first, the peptide text is derived from it."}
{"smiles": "CC(=O)N[C@@H](CC(=O)O)C(=O)N[C@@H](CCC(=O)O)C(=O)O", "note": "[NAAGA, N-acetyl-(alpha, beta)-aspartyl glutamic acid] (Ac-Asp-Glu-OH)", "values": [{"measurement": "metabolism", "setting": "[1]", "value": "rapidly and extensively metabolized"}]}
{"smiles": "O=C(O)c1cc(=O)c2c(OCC(O)COc3cccc4oc(C(=O)O)cc(=O)c34)cccc2o1", "note": "[sodium cromoglycate]", "values": [{"measurement": "Quantity of serum albumin in the conjunctiva", "setting": "allergic conjunctivitis; 6 instillations of 2 eye-drops in each eye daily for 3.5 days, mean ± spread", "value": "34.5 ± 13.6", "unit": "µg"}, {"measurement": "Weight of the conjunctiva", "setting": "allergic conjunctivitis", "value": "411 ± 64", "unit": "mg"}, {"measurement": "Blood-conjunctiva index (× 100)", "setting": "allergic conjunctivitis; ratio of radioactivity of 1 mg of conjunctiva to that of 1 ml of blood, × 100", "value": "4.7 ± 1.8"}, {"measurement": "Average number of granulated mast cells per microscopic field", "setting": "[2]; 0.1 ml in each nostril twice daily during 3 days, 15 minutes before 48/80 at 2 %", "value": 4.6}, {"measurement": "protective effect inferior to that of NAAGA by", "setting": "[2]; 2 % concentration (commercial solution), same experimental condition", "value": "about 40%"}, {"measurement": "patients with improvement in the ocular symptoms", "setting": "[3]; 1 drop in each eye 3 to 5 times daily, 2 weeks per product, 33 patients", "value": "more than 65%"}, {"measurement": "preferences expressed by the patients", "setting": "[3]; cross-over comparison of the two eye-drops", "value": 33, "unit": "%"}, {"measurement": "frequency of marginal objective control", "setting": "[4]", "value": 33, "unit": "%"}, {"measurement": "frequency of marginal subjective control", "setting": "[4]", "value": 37, "unit": "%"}, {"measurement": "Nasal and systemic tolerance", "setting": "[5]", "value": "good and no side-effects were seen"}, {"measurement": "patients with results of treatment considered to be good", "setting": "[5]", "value": 61, "unit": "%"}]}
{"smiles": "CC(=O)N[C@@H](CC(=O)O)C(=O)N[C@@H](CCC(=O)O)C(=O)O", "note": "[sodium salt] (Ac-Asp-Glu-OH)", "values": [{"measurement": "acute tolerance on ciliary movement versus criterion (not more than 50% decrease after twenty minutes)", "setting": "ciliary movement", "value": "Analogous results"}]}
